According to publication PMC7594079, “Insights into the Function and Evolution of Taste 1 Receptor Gene Family in the Carnivore Fish Gilthead Seabream (Sparus aurata)” (International Journal of Molecular Sciences, 2020):

Molecular target: T1, saT1R1/R3 (Sparus aurata, UniProt A0A671TNH8+A0A671VZB3)
T1 sequence (A0A671TNH8 23-847): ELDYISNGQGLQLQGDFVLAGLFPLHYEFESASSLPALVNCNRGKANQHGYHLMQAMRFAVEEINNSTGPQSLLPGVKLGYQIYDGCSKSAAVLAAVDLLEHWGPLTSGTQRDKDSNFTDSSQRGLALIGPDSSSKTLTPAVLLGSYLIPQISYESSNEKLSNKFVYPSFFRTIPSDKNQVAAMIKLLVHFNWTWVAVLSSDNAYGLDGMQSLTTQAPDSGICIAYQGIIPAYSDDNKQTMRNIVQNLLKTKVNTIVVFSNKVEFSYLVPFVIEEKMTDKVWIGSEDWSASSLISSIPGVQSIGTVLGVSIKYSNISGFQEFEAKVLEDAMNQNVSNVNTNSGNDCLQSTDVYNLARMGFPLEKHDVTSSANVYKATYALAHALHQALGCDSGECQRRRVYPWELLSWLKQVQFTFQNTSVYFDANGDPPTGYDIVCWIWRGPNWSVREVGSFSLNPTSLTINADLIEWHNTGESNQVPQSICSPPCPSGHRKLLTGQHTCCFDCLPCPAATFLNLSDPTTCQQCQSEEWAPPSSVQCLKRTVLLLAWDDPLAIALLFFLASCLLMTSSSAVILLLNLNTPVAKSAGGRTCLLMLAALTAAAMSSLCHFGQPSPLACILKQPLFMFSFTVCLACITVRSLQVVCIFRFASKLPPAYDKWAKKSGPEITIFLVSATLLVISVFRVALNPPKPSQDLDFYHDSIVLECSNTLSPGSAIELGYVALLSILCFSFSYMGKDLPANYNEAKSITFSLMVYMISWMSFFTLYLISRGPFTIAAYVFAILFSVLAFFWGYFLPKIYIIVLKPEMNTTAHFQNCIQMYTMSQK
T1 sequence (A0A671VZB3 24-860): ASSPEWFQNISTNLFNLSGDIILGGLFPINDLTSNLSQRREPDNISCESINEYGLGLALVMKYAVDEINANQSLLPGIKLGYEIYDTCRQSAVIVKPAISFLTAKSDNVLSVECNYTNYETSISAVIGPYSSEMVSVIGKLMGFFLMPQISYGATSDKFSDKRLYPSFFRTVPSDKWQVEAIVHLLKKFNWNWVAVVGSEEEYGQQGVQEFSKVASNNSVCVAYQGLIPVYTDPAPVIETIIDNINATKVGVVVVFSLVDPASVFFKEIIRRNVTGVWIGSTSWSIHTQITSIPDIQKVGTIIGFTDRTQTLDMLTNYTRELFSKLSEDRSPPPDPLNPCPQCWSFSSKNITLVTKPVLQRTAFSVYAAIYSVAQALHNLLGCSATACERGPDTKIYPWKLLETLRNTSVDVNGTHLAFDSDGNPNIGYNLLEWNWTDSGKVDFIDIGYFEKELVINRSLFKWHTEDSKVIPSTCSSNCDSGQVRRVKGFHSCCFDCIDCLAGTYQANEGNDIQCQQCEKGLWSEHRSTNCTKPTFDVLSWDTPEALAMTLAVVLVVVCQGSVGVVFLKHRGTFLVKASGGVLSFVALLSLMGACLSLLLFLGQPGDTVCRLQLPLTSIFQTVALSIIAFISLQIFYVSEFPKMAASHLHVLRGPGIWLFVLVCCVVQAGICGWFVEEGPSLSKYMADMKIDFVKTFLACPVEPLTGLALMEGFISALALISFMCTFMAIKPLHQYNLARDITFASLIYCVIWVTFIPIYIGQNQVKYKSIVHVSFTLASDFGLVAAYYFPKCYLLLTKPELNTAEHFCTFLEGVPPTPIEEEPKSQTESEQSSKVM
Assay: saT1R1/R3 heterodimer transiently transfected in stable pGL3-NFAT-luc-HEK293 (Cl.3) cells, luciferase reporter
Type: cell-based
Conditions: as molarity; decimal comma
Source text: Figure 6 Amino acid Log-dose response curves of activation in heterologous co-transfected (Cl.3) cells with saT1R1/3 (green dots), saT1R2a/3 (red squares) and saT1R2b/3 (black triangles) heterodimers. Evaluation of L-AA responses was based on the RLU mean ± SEM of four independent determinations normalized to the mean response of the same transfections stimulated with reduced assay medium (Basal Medium Eagle w/o L-glutamate (BME) + 1% FBS), and expressed as the percentage relative to basal levels (BL).
HEK293 cells were cultured in standard medium DMEM (Gibco, Thermo Fisher, Saint Louis, MO, USA) containing 10% FBS, penicillin (100 U/mL) and streptomycin ([…]) at 37 °C, with a humidified atmosphere at 5% CO2. pGL3-NFAT-luc-HEK293 stable clones were generated by co-transfections of pGL3-NFAT-luc and tgCMV/HyTK plasmids (50:1), the latter harboring the hygromycin phosphotransferase gene, using Lipofectamine LTX according to supplier’s protocols (Thermo Fisher, Saint Louis, MO, USA). Initially, HEK293 cells were selected using DMEM containing 400 μg/mL hygromycin B (Sigma, Darmstadt, Germany) in 24-well plates for two weeks; 24 colonies were further grown out in 96-well plates under reduced hygromycin selection (200 µg/mL) for three weeks. Potentially resistant NFAT-luc-HEK293 clones (n = 22) were validated after incubation in assay medium (DMEM + 1% FBS) containing PMA or Ionomycin (Sigma, Darmstadt, Germany) for 18 h (triplicates, 50,000 cells/well). Luciferase activity was quantified with ONE-Glo™ EX Reagent Kit (Promega, Madison, WI, USA) using a 96-microplate TECAN reader (Trading AG, Switzerland).
saT1Rs (saT1R1, saT1R2a, saT1R2b saT1R3) and saGαi1-2 genes were RT-PCR amplified using 5’ and 3’ flanking primers carrying HindIII and XhoI restriction sites, respectively. Gel-purified fragments were cloned into pGEM-T Easy vectors, re-sequenced, digested and subcloned into pcDNA™3 (Invitrogen, Carlsbad, CA, USA). Effective saT1R cloning into pcDNA™3 was further verified by HindIII/XhoI digestion. Transient co-transfections were done in 6-well plates (confluence ~70–80%) using 100 μL of reduced serum medium (Opti-MEM, Gibco, Thermo Fisher, Saint Louis, MO, USA) containing 150 ng of each selected pcDNA™3 construct, 1:10 charge ratio of Enhanced Green Fluorescent expressing construct (EGFP; positive control), and pBluescript II SK (+) vector DNA (Addgene, Watertown, MA, USA) up to 1 µg of totally transfected DNA. Following 24 h incubation, cells were washed with fresh standard medium and plated in polylysine treated plates for additional 24 h. Cells were then stimulated with L-AAs and sugar compounds for 18 h in a reduced assay medium (BME w/o L-glutamate; Gibco, Thermo Fisher, Saint Louis, MO, USA) + 1% FBS), to prevent unspecific Ca^2+/NFAT signaling activation and potential saT1R desensitization. All L-AAs and sugars used for in vitro experiments were obtained from Merck KGaA (Darmstadt, Germany).

Row | Structure (SMILES) | T1R1/R3 [MSD] maximum stimulation dose
1 | N[C@@H](CO)C(=O)O [Ser, Serine] | 1,00 × 10^-1 M
2 | NC(=O)CC[C@H](N)C(=O)O [Gln, Glutamine] | 1,00 × 10^-1 M
3 | N[C@@H](Cc1ccc(O)cc1)C(=O)O [Tyr, Tyrosine] | 1,00 × 10^-3 M
4 | N[C@@H](Cc1c[nH]cn1)C(=O)O [His, Histidine] | 1,00 × 10^-5 M
5 | N=C(N)NCCC[C@H](N)C(=O)O [Arg, Arginine] | 1,00 × 10^-5 M
6 | CSCC[C@H](N)C(=O)O [Met, Methionine] | 1,00 × 10^-1 M
7 | N[C@@H](Cc1c[nH]c2ccccc12)C(=O)O [Trp, Tryptophan] | 1,00 × 10^-3 M
8 | N[C@@H](CC(=O)O)C(=O)O [Asp, Aspartic acid] | 1,00 × 10^-5 M
9 | CC(C)C[C@H](N)C(=O)O [Leu, Leucine] | 1,00 × 10^-1 M
10 | NC(=O)C[C@H](N)C(=O)O [Asn, Asparagine] | 1,00 × 10^-1 M
11 | N[C@@H](CS)C(=O)O [Cys, Cysteine] | 1,00 × 10^-4 M
12 | N[C@@H](CCC(=O)O)C(=O)O [Glu, Glutamic acid] | 1,00 × 10^-2 M
13 | O=C(O)[C@@H]1CCCN1 [Pro, Proline] | 1,00 × 10^-1 M
14 | C[C@@H](O)[C@H](N)C(=O)O [Thr, Threonine] | 1,00 × 10^-1 M
15 | N[C@@H](Cc1ccccc1)C(=O)O [Phe, Phenylalanine] | 1,00 × 10^-2 M
16 | NCC(=O)O [Gly, Glycine] | 1,00 × 10^-1 M
17 | CC[C@H](C)[C@H](N)C(=O)O [Ile, Isoleucine] | 1,00 × 10^-1 M
18 | CC(C)[C@H](N)C(=O)O [Val, Valine] | 1,00 × 10^-1 M
19 | NCCCC[C@H](N)C(=O)O [Lys, Lysine] | 1,00 × 10^-3 M
20 | C[C@H](N)C(=O)O [Ala, Alanine] | 1,00 × 10^-1 M
